# Results as given in article PMC10033409, “Autoregulation of GPCR signalling through the third intracellular loop” (Nature, 2023).
# “And” between values parts separate entries of the source, which are not always exact repeats. Equal entries are not always repeated.
# Assays:
# [1] = tested on: Untransfected; test: Radiolabelled antagonist-binding assay (saturation), untransfected control sample; conditions: fitted curve
# Text: Supplement 41586_2023_5789_MOESM3_ESM.xlsx, sheet "Extended Data Figure 3J"
# [2] = tested on: β2AR; test: Radiolabelled antagonist-binding assay (saturation); parameters: species or system human; Bmax / 125I-Cyanopindolol saturation binding signal: unit not given here; conditions: for Bmax / fmol 125I-Cyanopindolol/mg sample: replicates 1-3 and Average; for fmol 125I-Cyanopindolol/mg sample, Fit: fitted curve;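 on all read-outs here: membranes expressing β2AR constructs, equilibrated with radioligand on ice, bound ligand retained on GF/C filters, Bmax normalized to membrane protein from a DC assay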
# [3] = Sensor + Gs-peptide, 125I-Cyanopindolol 0.000239059 nM
# [4] = Sensor + Gs-peptide, 125I-Cyanopindolol 0.0167722 nM
# [5] = Sensor + Gs-peptide, 125I-Cyanopindolol 0.0344858 nM
# [6] = Sensor + Gs-peptide, 125I-Cyanopindolol 0.073983 nM
# [7] = Sensor + Gs-peptide, 125I-Cyanopindolol 0.202201 nM
# [8] = Sensor + Gs-peptide, 125I-Cyanopindolol 0.415365 nM
# [9] = Sensor + Gs-peptide, 125I-Cyanopindolol 0.83063 nM
# [10] = Sensor + Gs-peptide, 125I-Cyanopindolol 1.64238 nM
substance,measurement,setting,value
[^125I](±)-cyanopindolol,"fmol 125I-Cyanopindolol/mg sample, Fit",[1]; 125I-Cyanopindolol 0.0198458 nM (Average),7.834e-5 fmol/mg sample
same,"fmol 125I-Cyanopindolol/mg sample, Fit",[1]; 125I-Cyanopindolol 0.0420593 nM (Average),0.0001875 fmol/mg sample
same,"fmol 125I-Cyanopindolol/mg sample, Fit",[1]; 125I-Cyanopindolol 0.234223 nM (Average),0.05859 fmol/mg sample
same,"fmol 125I-Cyanopindolol/mg sample, Fit",[1]; 125I-Cyanopindolol 0.468204 nM (Average),1.044 fmol/mg sample
same,"fmol 125I-Cyanopindolol/mg sample, Fit",[1]; 125I-Cyanopindolol 0.871756 nM (Average),13.7262 fmol/mg sample
same,"fmol 125I-Cyanopindolol/mg sample, Fit",[1]; 125I-Cyanopindolol 1.70257 nM (Average),172.555 fmol/mg sample
same,Bmax,[2]; Sensor + Gs-pep,1992.85 and 2334.87 and 1180.14
same,"fmol 125I-Cyanopindolol/mg sample, Fit",[2]; [3],0.00E+00 fmol/mg sample
same,fmol 125I-Cyanopindolol/mg sample,[2]; [3],-1.828 fmol/mg sample and 0.6291 fmol/mg sample and 0.5155 fmol/mg sample
same,"fmol 125I-Cyanopindolol/mg sample, Fit",[2]; [4],3.85E+02 fmol/mg sample
same,fmol 125I-Cyanopindolol/mg sample,[2]; [4],331.932 fmol/mg sample and 483.578 fmol/mg sample and 237.189 fmol/mg sample
same,"fmol 125I-Cyanopindolol/mg sample, Fit",[2]; [5],6.37E+02 fmol/mg sample
same,fmol 125I-Cyanopindolol/mg sample,[2]; [5],633.08 fmol/mg sample and 885.671 fmol/mg sample and 427.455 fmol/mg sample
same,"fmol 125I-Cyanopindolol/mg sample, Fit",[2]; [6],9.68E+02 fmol/mg sample
same,fmol 125I-Cyanopindolol/mg sample,[2]; [6],973.823 fmol/mg sample and 1370.71 fmol/mg sample and 652.022 fmol/mg sample
same,"fmol 125I-Cyanopindolol/mg sample, Fit",[2]; [7],1.38E+03 fmol/mg sample
same,fmol 125I-Cyanopindolol/mg sample,[2]; [7],1415.68 fmol/mg sample and 1842.87 fmol/mg sample and 880.16 fmol/mg sample
same,"fmol 125I-Cyanopindolol/mg sample, Fit",[2]; [8],1.58E+03 fmol/mg sample
same,fmol 125I-Cyanopindolol/mg sample,[2]; [8],1527.87 fmol/mg sample and 2049.46 fmol/mg sample and 1008.05 fmol/mg sample
same,"fmol 125I-Cyanopindolol/mg sample, Fit",[2]; [9],1.71E+03 fmol/mg sample
same,fmol 125I-Cyanopindolol/mg sample,[2]; [9],1817.18 fmol/mg sample and 2238.94 fmol/mg sample and 1107.54 fmol/mg sample
same,"fmol 125I-Cyanopindolol/mg sample, Fit",[2]; [10],1.78E+03 fmol/mg sample
same,fmol 125I-Cyanopindolol/mg sample,[2]; [10],1925.74 fmol/mg sample and 2301.14 fmol/mg sample and 1169.54 fmol/mg sample
same,fmol 125I-Cyanopindolol/mg sample,"[2]; Sensor + Gs-peptide, 125I-Cyanopindolol 1.64238 nM, mean",1798.81 fmol/mg sample
same,"fmol 125I-Cyanopindolol/mg sample, Fit","[2]; Sensor, 125I-Cyanopindolol 0.0198458 nM (Average)",3.34E+02 fmol/mg sample
same,"fmol 125I-Cyanopindolol/mg sample, Fit","[2]; Sensor, 125I-Cyanopindolol 0.0420593 nM (Average)",5.96E+02 fmol/mg sample
same,"fmol 125I-Cyanopindolol/mg sample, Fit","[2]; Sensor, 125I-Cyanopindolol 0.234223 nM (Average)",1.38E+03 fmol/mg sample
same,"fmol 125I-Cyanopindolol/mg sample, Fit","[2]; Sensor, 125I-Cyanopindolol 0.468204 nM (Average)",1.60E+03 fmol/mg sample
same,"fmol 125I-Cyanopindolol/mg sample, Fit","[2]; Sensor, 125I-Cyanopindolol 0.871756 nM (Average)",1.73E+03 fmol/mg sample
same,"fmol 125I-Cyanopindolol/mg sample, Fit","[2]; Sensor, 125I-Cyanopindolol 1.70257 nM (Average)",1.81E+03 fmol/mg sample
same,Bmax,[2]; Sensor,1914.14 and 2557.54 and 1116.04
same,125I-Cyanopindolol saturation binding signal,"[2]; ∆ICL3 + 30 µM Q, 0.0283 nM, Average",236.51
same,125I-Cyanopindolol saturation binding signal,"[2]; ∆ICL3 + 30 µM Q, 0.0283 nM, Fit",285.20
same,125I-Cyanopindolol saturation binding signal,"[2]; ∆ICL3 + 30 µM Q, 0.0283 nM, experiments 1-3",222.98 and 255.55 and 231.00
same,125I-Cyanopindolol saturation binding signal,"[2]; ∆ICL3 + 30 µM Q, 0.0474 nM, Average",366.56
same,125I-Cyanopindolol saturation binding signal,"[2]; ∆ICL3 + 30 µM Q, 0.0474 nM, Fit",463.24
same,125I-Cyanopindolol saturation binding signal,"[2]; ∆ICL3 + 30 µM Q, 0.0474 nM, experiments 1-3",296.41 and 421.89 and 381.36
same,125I-Cyanopindolol saturation binding signal,"[2]; ∆ICL3 + 30 µM Q, 0.10 nM, Average",910.97
same,125I-Cyanopindolol saturation binding signal,"[2]; ∆ICL3 + 30 µM Q, 0.10 nM, Fit",816.24
same,125I-Cyanopindolol saturation binding signal,"[2]; ∆ICL3 + 30 µM Q, 0.10 nM, experiments 1-3",840.60 and 993.89 and 898.42
same,125I-Cyanopindolol saturation binding signal,"[2]; ∆ICL3 + 30 µM Q, 1.85 nM, Average",1906.34
same,125I-Cyanopindolol saturation binding signal,"[2]; ∆ICL3 + 30 µM Q, 1.85 nM, Fit",1809.97
same,125I-Cyanopindolol saturation binding signal,"[2]; ∆ICL3 + 30 µM Q, 1.85 nM, experiments 1-3",1586.99 and 2170.25 and 1961.77
same,125I-Cyanopindolol saturation binding signal,"[2]; ∆ICL3, 0.0283 nM, Average",126.54
same,125I-Cyanopindolol saturation binding signal,"[2]; ∆ICL3, 0.0283 nM, Fit",399.52
same,125I-Cyanopindolol saturation binding signal,"[2]; ∆ICL3, 0.0283 nM, experiments 1-3",94.88 and 85.74
same,125I-Cyanopindolol saturation binding signal,"[2]; ∆ICL3, 0.0474 nM, Average",687.11
same,125I-Cyanopindolol saturation binding signal,"[2]; ∆ICL3, 0.0474 nM, Fit",612.62
same,125I-Cyanopindolol saturation binding signal,"[2]; ∆ICL3, 0.10 nM, Average",1201.35
same,125I-Cyanopindolol saturation binding signal,"[2]; ∆ICL3, 0.10 nM, Fit",1024.98
same,125I-Cyanopindolol saturation binding signal,"[2]; ∆ICL3, 1.85 nM, Average",2504.14
same,125I-Cyanopindolol saturation binding signal,"[2]; ∆ICL3, 1.85 nM, Fit",2413.51
same,125I-Cyanopindolol saturation binding signal,"[2]; ∆ICL3, 1.85 nM, experiments 1-3",2561.55 and 2855.56 and 2095.33
